How the values were obtained:
barnyardgrass [1] = test: Test Example 1: foliage treatment, upland pot test; type: in vivo, Echinochloa crus-galli L.; conditions: active ingredient 500 g/ha, observed 18th to 23rd day, 0 = non-treated, 100 = complete kill
Method in brief: (§1)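 Crops and weeds were sown in upland soil pots and sprayed post-emergence at set leaf stages (soybean 0.1–0.4, wheat 1.3–2.4, rice 1.2–2.6, barnyardgrass 1.3–2.8). Formulated compound was applied in 500 L/ha water with 0.1% spreader. Growth control (0–100%) was rated visually 18–23 days later.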

green foxtail [2] = test: Test Example 1: foliage treatment, upland pot test; type: in vivo, Setaria viridis L.; conditions: active ingredient 500 g/ha, observed 18th to 23rd day, 0 = non-treated, 100 = complete kill
redroot pigweed [3] = test: Test Example 1: foliage treatment, upland pot test; type: in vivo, Amaranthus retroflexus L.; conditions: active ingredient 500 g/ha, observed 18th to 23rd day, 0 = non-treated, 100 = complete kill
prickly sida [4] = test: Test Example 1: foliage treatment, upland pot test; type: in vivo, Sida spinosa L.; conditions: active ingredient 500 g/ha, observed 18th to 23rd day, 0 = non-treated, 100 = complete kill
velvetleaf [5] = test: Test Example 1: foliage treatment, upland pot test; type: in vivo, Abutilon theophrasti MEDIC.; conditions: active ingredient 500 g/ha, observed 18th to 23rd day, 0 = non-treated, 100 = complete kill
rice [6] = test: Test Example 1: foliage treatment, upland pot test; type: in vivo, Oryza sativa L.; conditions: crop, active ingredient 500 g/ha, observed 18th to 23rd day, 0 = non-treated, 100 = complete kill
Method in brief: as §1

wheat [7] = test: Test Example 1: foliage treatment, upland pot test; type: in vivo, Triticum spp.; conditions: crop, active ingredient 500 g/ha, observed 18th to 23rd day, 0 = non-treated, 100 = complete kill
Excerpt: Upland field soil was put into a 1/170,000 ha pot, and seed of various plants were sown. Then, when the plants reached predetermined leaf stages ((1) barnyardgrass: 1.3 to 2.8 leaf stages, (2) crabgrass: 1.0 to 2.8 leaf stages, (3) green foxtail: 1.3 to 2.6 leaf stages, (4) redroot pigweed: 0.1 to 1.2 leaf stages, (5) prickly sida: 0.1 to 1.2 leaf stages, (6) velvetleaf: 0.1 to 1.2 leaf stages, (7) tall morningglory: 0.1 to 1.5 leaf stages, (8) rice: 1.2 to 2.6 leaf stages, (9) wheat: 1.3 to 2.4 leaf stages, (10) corn, 2.1 to 3.2 leaf stages, (11) soybean: 0.1 to 0.4 leaf stage), a wettable powder or emulsifiable concentrate having the compound of the present invention formulated in accordance with a usual formulation method, was weighed so that the active ingredient would be a predetermined amount, and diluted with water in an amount of 500 L/ha. To the diluted solution, 0.1% (v/v) of agricultural spreader was added. The herbicide thus adjusted was applied by a small size sprayer for foliage treatment. On the 18th to 23rd days after the application of the herbicide, the growth of the respective plants was visually observed, and the herbicidal effects were evaluated by the growth controlling degrees (%) ranging from 0 (equivalent to the non-treated plot) to 100 (complete kill), whereby the results shown in Table 3, were obtained.

soybean [8] = test: Test Example 1: foliage treatment, upland pot test; type: in vivo, Glycine max Merr.; conditions: crop, active ingredient 500 g/ha, observed 18th to 23rd day, 0 = non-treated, 100 = complete kill
Method in brief: as §1

barnyardgrass [9] = test: Test Example 2: soil surface treatment, upland pot test; type: in vivo, Echinochloa crus-galli L.; conditions: observed 20th to 28th day
Method in brief: (§2)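 A pre-emergence soil application: formulated compound at a predetermined active-ingredient dose, diluted in water to 1,500 L/ha, sprayed on upland soil a day after seeding in 1/170,000 ha pots; growth control rated visually, 0 (untreated level) to 100 (kill), at 20–28 days.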

crabgrass [10] = test: as above; type: in vivo, Digitaria sanguinalis L.; conditions: observed 20th to 28th day
Method in brief: as §2

green foxtail [11] = test: as above; type: in vivo, Setaria viridis L.; conditions: observed 20th to 28th day
Method in brief: as §2

redroot pigweed [12] = test: as above; type: in vivo, Amaranthus retroflexus L.; conditions: observed 20th to 28th day
Method in brief: as §2

prickly sida [13] = test: as above; type: in vivo, Sida spinosa L.; conditions: observed 20th to 28th day
Method in brief: as §2

velvetleaf [14] = test: as above; type: in vivo, Abutilon theophrasti MEDIC.; conditions: observed 20th to 28th day
Method in brief: as §2

rice [15] = test: as above; type: in vivo, Oryza sativa L.; conditions: observed 20th to 28th day
Method in brief: as §2

wheat [16] = test: as above; type: in vivo, Triticum spp.; conditions: observed 20th to 28th day
Method in brief: as §2

corn [17] = test: as above; type: in vivo, Zea mays L.; conditions: active ingredient 500 g/ha, observed 20th to 28th day
Method in brief: as §2

barnyardgrass [18] = test: Test Example 3: paddy pot test, application under submerged conditions; type: in vivo, Echinochloa crus-galli L.; conditions: submerged application at 0.5 leaf stage, visually observed 14 days after application, 0 = non-treated, 100 = complete kill
Method in brief: (§3)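 Visual growth-control rating (0 = untreated, 100 = complete kill) 14 days after treatment. The formulated compound, as a diluted wettable powder or emulsifiable concentrate, went into 3–4 cm flood water at a predetermined active-ingredient dose once the weeds reached 0.5 leaf stage (wapato: primary leaf stage).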

japanese bulrush = test: as above; type: in vivo, Scirpus juncoides; conditions: submerged application at 0.5 leaf stage, visually observed 14 days after application, 0 = non-treated, 100 = complete kill
Method in brief: as §3

rice (var. Nihonbare) = test: Test Example 3: paddy pot test, transplanted rice; type: in vivo, Oryza sativa L.; conditions: applied 4th day after transplantation, visually observed 21st day after application, 0 = non-treated, 100 = complete kill
Method in brief: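 Rice (var. Nihonbare) at 2 leaf stage transplanted 3 cm deep into puddled paddy soil under 3–4 cm flooding; on day 4 after transplanting, diluted wettable powder or emulsifiable concentrate applied by pipette under submerged conditions at a set active-ingredient dose. Growth scored visually 21 days after application, 0 (untreated) to 100 (complete kill) %.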

crabgrass [19] = test: Test Example 1: foliage treatment, upland pot test; type: in vivo, Digitaria sanguinalis L.; conditions: active ingredient 500 g/ha, observed 18th to 23rd day, 0 = non-treated, 100 = complete kill
corn [20] = test: Test Example 1: foliage treatment, upland pot test; type: in vivo, Zea mays L.; conditions: crop, active ingredient 500 g/ha, observed 18th to 23rd day, 0 = non-treated, 100 = complete kill
Method in brief: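 In this upland pot foliage test, corn plants at 2.1 to 3.2 leaf stages were sprayed by a small size sprayer. The spray was a conventionally formulated wettable powder or emulsifiable concentrate weighed to a set active ingredient amount, diluted in water at 500 L/ha, plus 0.1% (v/v) agricultural spreader. Visual assessment on days 18 to 23 gave growth controlling degree (%), where 0 equals untreated and 100 means complete kill.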

soybean [21] = test: Test Example 2: soil surface treatment, upland pot test; type: in vivo, Glycine max Merr.; conditions: observed 20th to 28th day
Method in brief: as §2

japanese ribbon wapato = test: Test Example 3: paddy pot test, application under submerged conditions; type: in vivo, Sagittaria pygniaea; conditions: active ingredient 500 g/ha; submerged application at primary leaf stage; visually observed 14 days after application; 0 = non-treated, 100 = complete kill
Method in brief: as §3

Compound | Growth controlling degree (%) Barnyardgrass (barnyardgrass [1]) [%] | Growth controlling degree (%) Green foxtail (green foxtail [2]) [%] | Growth controlling degree (%) Redroot pigweed (redroot pigweed [3]) [%] | Growth controlling degree (%) Prickly sida (prickly sida [4]) [%] | Growth controlling degree (%) Velvetleaf (velvetleaf [5]) [%] | Growth controlling degree (%) Rice (rice [6]) [%] | Growth controlling degree (%) wheat (wheat [7]) [%] | Growth controlling degree (%) Soybean (soybean [8]) [%] | Growth controlling degree (%) Barnyardgrass (barnyardgrass [9]; active ingredient 500 g/ha) [%] | Growth controlling degree (%) Crabgrass (crabgrass [10]; active ingredient 500 g/ha) [%] | Growth controlling degree (%) Green foxtail (green foxtail [11]; active ingredient 500 g/ha) [%] | Growth controlling degree (%) Redroot pigweed (redroot pigweed [12]; active ingredient 500 g/ha) [%] | Growth controlling degree (%) Prickly sida (prickly sida [13]; active ingredient 500 g/ha) [%] | Growth controlling degree (%) Velvetleaf (velvetleaf [14]; active ingredient 500 g/ha) [%] | Growth controlling degree (%) Rice (rice [15]; active ingredient 500 g/ha) [%] | Growth controlling degree (%) Corn (corn [17]) [%] | Growth controlling degree (%) Barnyardgrass (barnyardgrass [18]; active ingredient 500 g/ha) [%] | Growth controlling degree (%) Japanese bulrush (japanese bulrush; active ingredient 500 g/ha) [%] | Growth controlling degree (%) Crabgrass (crabgrass [19]) [%] | Growth controlling degree (%) Corn (corn [20]) [%] | other results
CC(C)C(c1cnccc1C(F)(F)F)N(C)C(=O)Cc1csc2ccccc12 (centres unmarked) [I-192] | 80 | 60 | 80 | 90 | 70 | 10 | 0 | 80 | 98 | 80 | 80 | 10 | 0 | 0 | 10 | 10 | 100 | 90 | – | – | Growth controlling degree (%) wheat (wheat [16]; active ingredient 500 g/ha): 0%; Growth controlling degree (%) Rice (rice (var. Nihonbare); active ingredient 500 g/ha): 30%
C=CC(=O)N(C)C(c1cnccc1C(F)(F)F)C(C)C (centres unmarked) [I-190] | 80 | 80 | 70 | 70 | 60 | 70 | 70 | 60 | 100 | 100 | 100 | 80 | 90 | 50 | 98 | 10 | 100 | 98 | 80 | 70 | Growth controlling degree (%) Soyabean (soybean [21]; active ingredient 500 g/ha): 30%; Growth controlling degree (%) Japanese ribbon wapato (japanese ribbon wapato): 90%; Growth controlling degree (%) Rice (rice (var. Nihonbare); active ingredient 500 g/ha): 95%
CCCCC(=O)N(C)C(c1cnccc1C(F)(F)F)C(C)C (centres unmarked) [I-199] | 70 | 70 | 60 | 70 | 60 | 50 | 50 | 60 | – | – | – | – | – | – | – | – | – | – | 80 | 60 | Growth controlling degree (%) Barnyardgrass (barnyardgrass [9]; active ingredient 250 g/ha): 100%; Growth controlling degree (%) Crabgrass (crabgrass [10]; active ingredient 250 g/ha): 100%; Growth controlling degree (%) Green foxtail (green foxtail [11]; active ingredient 250 g/ha): 100%; Growth controlling degree (%) Redroot pigweed (redroot pigweed [12]; active ingredient 250 g/ha): 70%; Growth controlling degree (%) Prickly sida (prickly sida [13]; active ingredient 250 g/ha): 80%; Growth controlling degree (%) Velvetleaf (velvetleaf [14]; active ingredient 250 g/ha): 50%; Growth controlling degree (%) Rice (rice [15]; active ingredient 250 g/ha): 90%; Growth controlling degree (%) wheat (wheat [16]; active ingredient 250 g/ha): 50%; Growth controlling degree (%) Soyabean (soybean [21]; active ingredient 250 g/ha): 20%; Growth controlling degree (%) Barnyardgrass (barnyardgrass [18]; active ingredient 250 g/ha): 100%; Growth controlling degree (%) Japanese bulrush (japanese bulrush; active ingredient 250 g/ha): 98%; Growth controlling degree (%) Rice (rice (var. Nihonbare); active ingredient 250 g/ha): 40%
CCCC(=O)N(C)C(c1cnccc1C(F)(F)F)C(C)C (centres unmarked) [I-189, N-methyl-N-[2-methyl-1-(4-trifluoromethylpyridin-3-yl)propyl]butanamide] | 90 | 90 | 80 | 85 | 70 | 80 | 70 | 80 | 100 | 100 | 100 | 100 | 90 | 90 | 100 | 50 | 100 | 98 | 98 | 90 | Growth controlling degree (%) Soyabean (soybean [21]; active ingredient 500 g/ha): 95%; Growth controlling degree (%) Japanese ribbon wapato (japanese ribbon wapato): 95%; Growth controlling degree (%) Rice (rice (var. Nihonbare); active ingredient 500 g/ha): 95%
CC(Oc1ccc(Br)cc1)C(=O)N(C)C(c1cnccc1C(F)(F)F)C(C)C (mixture of isomers) [I-132] | 70 | 60 | 70 | 80 | 60 | 10 | 10 | 80 | 98 | 90 | – | 10 | 70 | 0 | 10 | 0 | – | – | 90 | 80 | Growth controlling degree (%) wheat (wheat [16]; active ingredient 500 g/ha): 10%; Growth controlling degree (%) Soyabean (soybean [21]; active ingredient 500 g/ha): 10%; Growth controlling degree (%) Barnyardgrass (barnyardgrass [18]; active ingredient 250 g/ha): 100%; Growth controlling degree (%) Japanese bulrush (japanese bulrush; active ingredient 250 g/ha): 80%; Growth controlling degree (%) Rice (rice (var. Nihonbare); active ingredient 250 g/ha): 20%

— patent US20050239656A1, “Pyridine compounds or salts thereof and herbicides containing the same” (priority 2002, published 2005)
